According to patent publication US20250179059A1 (The Regents of the University of California, priority 2021, published 2025):
Like-named read-outs stand apart in the source and are kept apart here.

Legend:
[1] = tested on: human SKM-1 acute myeloid leukemia cells; assay: SKM-1 antiproliferation cell-based assay (ATPlite)
Summary of the method: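 Log-phase cells in RPMI 1640/15% FBS were seeded at 34722 cells/mL and exposed for 4 days to nine-concentration DMSO serial dilutions in triplicate. Viability was read as ATP luminescence (ATPlite 1step), and IC50 values came from variable-slope non-linear regression.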

[2] = molecular target: T1, human BRD4 bromodomain II (Homo sapiens, UniProt O60885); assay: Bromodomain binding assay (AlphaScreen), BRD4 BDII
T1 construct: human BRD4 bromodomain II [based on Genbank NM_058243, residues 349-460]; host or cells: E. coli
Summary of the method: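 AlphaScreen competition: His6-BRD4 BDI (aa 44-170) or BDII (aa 349-460) vs biotin-H4(1-21) K5/K8/K12/K16Ac peptide; Ni-chelate acceptor/streptavidin donor beads. HEPES pH 7.5, NaCl, CHAPS, BSA, 1% DMSO; RT. 10-pt 3-fold titration, % peptide binding fitted → IC50.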

[3] = Homo sapiens, SKM-1, 96 h, SKM-1 antiproliferation assay, 4 days, Table C2
[4] = AlphaScreen assay, Table C2, read-out: BRD4 BDII IC50
[5] = Homo sapiens, SKM-1, SKM-1 antiproliferation assay
[6] = BRD4 BDII AlphaScreen assay, read-out: BRD4 BD2 IC50

SMILES	GI50 [1, 3]	IC50 [2, 4]	GI50 [1, 5]	IC50 [2, 6]	GI50 ([1]; SKM-1 antiproliferation assay)
C[C@@H]1CN(c2cc(-c3cc(F)cc(-c4ccc(-n5ccn(C)c5=O)c(Cl)c4)c3O)cc3[nH]ncc23)C[C@H](C)N1 [Example 577]	0.3 to 30 nM	0.01 to 1 nM			
CC1CN(c2cc(-c3cccc(-c4ccc(N5CCCC5=O)c(F)c4)c3O)ccn2)CC(C)N1 (centres unmarked) [Example 266, 1-(3′-(2-(3,5-dimethylpiperazin-1-yl)pyridin-4-yl)-3-fluoro-2′-hydroxy-[1,1′-biphenyl]-4-yl)pyrrolidin-2-one]	300 to 3000 nM	1 to 10 nM			
CN1CCN(c2ccc(-c3cccc(-c4cncc(N5CCNCC5)c4)c3O)cc2Cl)C1=O [Example 293, 1-(3-chloro-2′-hydroxy-3′-(5-(piperazin-l-yl)pyridin-3-yl)-[1,1′-biphenyl]-4-yl)-3-methylimidazolidin-2-one]	30 to 300 nM	1 to 10 nM			
CC(=O)Nc1ccc(-c2cccc(-c3cncc(N4CCNCC4)c3)c2O)cc1F [Example 189, N-(3-fluoro-2′-hydroxy-3′-(5-(piperazin-1-yl)pyridin-3-yl)-[1,1′-biphenyl]-4-yl)acetamide]	30 to 300 nM	1 to 10 nM			
CC(=O)Nc1ccc(-c2cccc(-c3cc(F)nc(N4CCNCC4)c3)c2O)cc1F [Example 291, N-(3-fluoro-3′-(2-fluoro-6-(piperazin-1-yl)pyridin-4-yl)-2′-hydroxy-[1,1′-biphenyl]-4-yl)acetamide]	300 to 3000 nM	10 to 100 nM			
CC(C)c1cc(-c2cc(F)cc(-c3cccc(N4CCN(C(C)(C)C)CC4)c3)c2O)cc(Cl)c1-n1ccn(C)c1=O [Example 932, 1-(3″-(4-(tert-butyl)piperazin-1-yl)-3-chloro-5′-fluoro-2′-hydroxy-5-isopropyl-[1,1′:3′,1″-terphenyl]-4-yl)-3-methyl-1H-imidazol-2(3H)-one]			300 to 3000 nM	> 100 nM	
CN1CCN(c2ccc(-c3cc(C(C)(C)C)cc(-c4ccnc(N5CCNCC5)c4)c3O)cc2Cl)C1=O [Example 310, 1-(5′-(tert-butyl)-3-chloro-2′-hydroxy-3′-(2-(piperazin-1-yl)pyridin-4-yl)-[1,1′-biphenyl]-4-yl)-3-methylimidazolidin-2-one]	300 to 3000 nM	> 100 nM			
CN1CCN(c2ccc(-c3cccc(-c4cncc(N5CCCC(N)C5)c4)c3O)cc2Cl)C1=O (centres unmarked) [Example 325, 1-(3′-(5-(3-aminopiperidin-1-yl)pyridin-3-yl)-3-chloro-2′-hydroxy-[1,1′-biphenyl]-4-yl)-3-methylimidazolidin-2-one]	30 to 300 nM	1 to 10 nM			
COC(=O)c1ncc(-c2cc(F)cc(-c3ccc(N4CCN(C)C4=O)c(Cl)c3)c2O)cc1N1CCNCC1 [Example 376, Methyl 5-(3′-chloro-5-fluoro-2-hydroxy-4′-(3-methyl-2-oxoimidazolidin-1-yl)-[1,1′-biphenyl]-3-yl)-3-(piperazin-1-yl)picolinate]	≥ 3000 nM	> 100 nM			
Cn1ccn(-c2ccc(-c3cc(F)cc(-c4ccnc(N5CC6CNC(C6)C5)c4)c3O)cc2Cl)c1=O (centres unmarked) [Example 554, 1-(3′-(2-(3,6-diazabicyclo[3.2.1]octan-3-yl)pyridin-4-yl)-3-chloro-5′-fluoro-2′-hydroxy-[1,1′-biphenyl]-4-yl)-3-methyl-1H-imidazol-2(3H)-one]	0.3 to 30 nM	1 to 10 nM			
COc1ncc(-c2cc(F)cc(-c3ccc(-n4ccn(C)c4=O)c(Cl)c3)c2O)cc1N1CC(C)(O)C2(CC2)C1 (centres unmarked) [Example 833, 1-(3-chloro-5′-fluoro-2′-hydroxy-3′-(5-(7-hydroxy-7-methyl-5-azaspiro[2.4]heptan-5-yl)-6-methoxypyridin-3-yl)-[1,1′-biphenyl]-4-yl)-3-methyl-1H-imidazol-2(3H)-one]	30 to 300 nM	1 to 10 nM			
O=C1CCCCN1c1ccc(-c2cccc(-c3ccnc(N4CCNCC4)c3)c2O)cc1Cl [Example 282, 1-(3-chloro-2′-hydroxy-3′-(2-(piperazin-1-yl)pyridin-4-yl)-[1,1′-biphenyl]-4-yl)piperidin-2-one]	300 to 3000 nM	10 to 100 nM			
Cn1ccn(-c2ccc(-c3cc(F)cc(-c4cc(N5CCC[C@H](N)C5)c5cn[nH]c5c4)c3O)cc2Cl)c1=O [Example 578]	0.3 to 30 nM	0.01 to 1 nM			
O=C1NCCCN1c1ccc(-c2cccc(-c3ccnc(N4CCNCC4)c3)c2O)cc1F [Example 277, 1-(3-fluoro-2′-hydroxy-3′-(2-(piperazin-1-yl)pyridin-4-yl)-[1,1′-biphenyl]-4-yl)tetrahydropyrimidin-2(1H)-one]	300 to 3000 nM	> 100 nM			

Second part, the compound after the results:

GI50 [1, 3]	IC50 [2, 4]	GI50 [1, 5]	IC50 [2, 6]	GI50 ([1]; SKM-1 antiproliferation assay)	SMILES
0.3 to 30 nM	1 to 10 nM				CC(=O)Nc1cc(-c2cccc(-c3ccc(N4CCN(C)C4=O)c(Cl)c3)c2O)cc(N2CCNCC2)n1 [Example 383, N-(4-(3′-chloro-2-hydroxy-4′-(3-methyl-2-oxoimidazolidin-1-yl)-[1,1′-biphenyl]-3-yl)-6-(piperazin-1-yl)pyridin-2-yl)acetamide]
30 to 300 nM	1 to 10 nM				CC(=O)Nc1ccc(-c2cccc(-c3ccnc(N4CCN[C@H](C)C4)c3)c2O)cc1F [Example 255, (R)-N-(3-fluoro-2′-hydroxy-3'-(2-(3-methylpiperazin-1-yl)pyridin-4-yl)-[1,1′-biphenyl]-4-yl)acetamide]
30 to 300 nM	1 to 10 nM				O=C1CCCN1c1ccc(-c2cccc(-c3cncc(N4CCNCC4)c3)c2O)cc1Cl [Example 262, 1-(3-chloro-2′-hydroxy-3′-(5-(piperazin-l-yl)pyridin-3-yl)-[1,1′-biphenyl]-4-yl)pyrrolidin-2-one]
300 to 3000 nM	> 100 nM				CN1CCN(c2c(Cl)cc(-c3cc(F)cc(-c4ccnc(N5CCNCC5)c4)c3O)cc2Cl)C1=O [Example 404, 1-(3,5-dichloro-5′-fluoro-2′-hydroxy-3′-(2-(piperazin-1-yl)pyridin-4-yl)-[1,1′-biphenyl]-4-yl)-3-methylimidazolidin-2-one]
0.3 to 30 nM	1 to 10 nM				Cn1ccn(-c2ccc(-c3cc(F)cc(-c4cc(N5CC[C@](C)(N)C5)n(C)c(=O)c4)c3O)cc2Cl)c1=O [Example 765, (S)-6-(3-amino-3-methylpyrrolidin-1-yl)-4-(3′-chloro-5-fluoro-2-hydroxy-4′-(3-methyl-2-oxo-2,3-dihydro-1H-imidazol-1-yl)-[1,1′-biphenyl]-3-yl)-1-methylpyridin-2(1H)-one]
300 to 3000 nM	> 100 nM				CC1CC(=O)N(c2ccc(-c3cccc(-c4ccnc(N5CCNCC5)c4)c3O)cc2Cl)C1 (centres unmarked) [Example 340, 1-(3-chloro-2′-hydroxy-3′-(2-(piperazin-1-yl)pyridin-4-yl)-[1,1′-biphenyl]-4-yl)-4-methylpyrrolidin-2-one]
		300 to 3000 nM	> 100 nM		Cn1ccn(-c2ccc(-c3cc(F)cc(-c4cccc(N5CCN(C(C)(C)C)CC5)c4)c3O)nc2)c1=O [Example 944, 1-(6-(3′-(4-(tert-butyl)piperazin-1-yl)-5-fluoro-2-hydroxy-[1,1′-biphenyl]-3-yl)pyridin-3-yl)-3-methyl-1H-imidazol-2(3H)-one]
			1 to 10 nM	0.3 to 30 nM	Cn1ccn(-c2ccc(-c3cc(F)cc(-c4ccnc(N5CC(F)(F)[C@@](C)(O)C5)c4)c3O)cc2Cl)c1=O [Example 882]
